Where a chain is given by its changes, count along the chain named. Where two headings read alike, the source gives them in different places.
Tests used:
[1] = target: T1, native aldolase from rabbit muscle (RM) (Oryctolagus cuniculus, UniProt P00883); experiment: Aldolase activity by coupled enzyme test (TIM/GDH), inactivation and reactivation kinetics; format: biochemical; settings: for Specific activity: RM 0.2 mg/mL
T1 construct: made in house
T1 sequence (P00883 1-364): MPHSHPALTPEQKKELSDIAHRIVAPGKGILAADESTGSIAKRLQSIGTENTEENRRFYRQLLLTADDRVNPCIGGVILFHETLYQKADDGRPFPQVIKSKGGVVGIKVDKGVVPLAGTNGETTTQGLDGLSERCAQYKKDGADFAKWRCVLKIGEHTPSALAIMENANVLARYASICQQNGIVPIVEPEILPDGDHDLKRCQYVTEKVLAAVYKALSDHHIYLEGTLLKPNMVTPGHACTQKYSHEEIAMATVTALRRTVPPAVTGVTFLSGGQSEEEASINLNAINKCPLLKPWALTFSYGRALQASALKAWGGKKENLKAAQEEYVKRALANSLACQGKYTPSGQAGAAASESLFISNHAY
Experimental: Aldolase activity was measured using a coupled enzyme test system: the triose-phosphate isomerase and glycerol-3-phosphate deshydrogenase (TIM/GDH) system, following oxidation of the NADH (Boehringer-Mannheim, France) at 340 nm, by means of a SAFAS spectrophotometer preheated to 25° C. Testing began with the addition of the substrate (Fru(1.6)P2; […] in final concentration), to complete an aldolase solution created in a triethanolamine buffer (TEA buffer) (100 Mm TEA/HCl; 50 mM NaCl; 1 mM EDTA, pH 7.6; ionic strength 0.15), 0.42 mM of NADH, and containing both enzyme systems (10 μg/mL of GDH and 1 μg/mL of TIM) for a final volume of 1 mL. The construction, overexpression and purification of recombinant aldolase were carried out in accordance with Morris A. J. et al., 1993 (J. Biol. Chem., 265:1095-1100) and Berthiaume L. et al., 1993 (J. Biol. Chem., 268:10826-10835).
The substrate cleavage rate was determined by measuring the decrease in absorbance/minute at 340 nm. The aldolase was dialyzed overnight at 4° C. against a TEA buffer prior to use. The protein concentration was determined by spectrophotometry, using ε280=0.91 mL.mg^−1.cm^−1 as an extinction coefficient. Subunit concentration was determined on the basis of a molecular weight of 159,000 for an aldolase tetramer. • Kinetic Method:
In the extreme situation where k−2 approaches zero, a reversible slow-binding inhibitor may resemble an irreversible one directed toward the active site. In this situation, the equation eqn.(3) is used for this type of inhibition (Meloche H. P., 1967, Biochemistry, 6:2273-2280). The semi-inactivation time of the enzyme (t1/2) is defined as a function of the mutual inhibitor concentration and is graphically represented by a straight line crossing the Y-axis at […] and crossing the X-axis at −1/Ki. • Experimental Protocol:
Native aldolase (5 μM of subunits) is incubated in the presence of FHN-P (0.05-1 mM) in TEA buffer. Enzyme activity is analyzed as a function of time using 10 μl aliquot portions.
Inactivation kinetics follow pseudo-first-order kinetics, and kinetic parameters Ki and k2 are determined by using the equation eqn.(3). To determine the reactivation rate, aldolase (25 μM of subunits in the TEA buffer) is incubated with 500 μM of FHN-P until reaching 90% inactivation. Excess inhibitor is removed by ultrafiltration with a PM-30 Millipore membrane. The enzyme-inhibitor complex is incubated in the TEA buffer (15 μM of subunits at final concentration) containing hexitol-P2 (10 mM). Aliquot portions (10 μl) are removed at different times to measure aldolase activity.
Controls involve repeating the protocol without FHN-P. The reactivation process is analyzed as if it were a first-order reaction. • Monitored by UV-Visible Differential Spectroscopy.

K107M mutant RM aldolase = target: T2, K107M mutant RM aldolase (Oryctolagus cuniculus, UniProt P00883, K108M); experiment: UV-visible differential spectroscopy (method A) with mutated aldolase K107M; format: binding, rabbit; settings: FHN-P 300 μM
T2 construct: made in house
T2 sequence (P00883 1-364 K108M): T1 sequence (P00883 1-364) with K108M
Experimental: For method A, absorption spectra are recorded as a function of time, between 250 and 500 nm, or at wavelengths corresponding to maximum or minimum absorption. Measurements are begun by adding FHN-P at varying final concentrations (0.1-1 mM) in the TEA buffer containing a fixed concentration of aldolase (10 μM of subunits). Measured absorption spectra for the enzyme complex are corrected using the absorbance of the buffer, the FHN—P, and the enzyme (measured separately). The differential absorption spectra thus obtained are used to calculate the value of the constants that define the formation of the aldolase-inhibitor complex.
Every UV-visible differential test spectroscopy test using mutated aldolases (10 μM of subunits) is carried out using method A. • Monitored by Electrospray Ionization Mass Spectrometry (ESI-MS).
Residues of lysine 106, 146 and 229 residues are located at the active aldolase sites and thus are candidates for causing inactivation by forming a Schiff base with the FHN-P. In order to identify which lysine is responsible for the differential absorbances in the presence of FHN-P, sporadic mutations of these lysine residues were created and named: K107M (Research Collaboratory for Structural Bioinformatics Protein Databank), K146M (Blonski C. et al., 1997, Biochem. J. 323:71-77) and […] (Research Collaboratory for Structural Bioinformatics Protein Databank). […] UV-visible differential spectroscopy (method A) was used to examine formation of the enzyme complex for each sporadic mutation in the presence of a fixed concentration of FHN-P (300 μM).

O=Cc1c(O)ccc2cc(OP(=O)(O)O)ccc12 [FHN-P, 5-formyl-6-hydroxy-2-naphthylphosphate]
Specific activity ([1]; FHN-P 250 μM with Fru(1,6)P2 (1 mM), 80 min incubation): 5.2 ± 0.4 Unit/mg
Specific activity ([1]; FHN-P 250 μM with hexitol-P2, 80 min incubation): 9.9 ± 0.5 Unit/mg
Specific activity ([1]; compound 250 μM, TEA buffer pH 7.6, 80 min incubation, RM alone 12.5 ± 0.5): 2.8 ± 0.3 Unit/mg
Ki ([1]; dissociation constant of rapidly formed EI complex, from kapp at 0.01-1.5 mM inhibitor, eqn.(3), read-out: Ki): 250 ± 100 µM
Ki ([1]; estimated from the values of Table 2, read-out: global dissociation constant Ki*): 0.04 ± 0.02 µM
k2 ([1]; inactivation constant, enzyme activity kinetics): 0.07 ± 0.01 min⁻¹
Residual specific activity (K107M mutant RM aldolase): 95%
ΔA relative to 432 nm (K107M mutant RM aldolase; slow phase only): 30%
kapp (K107M mutant RM aldolase; slow phase only, 431 nm): 0.0015 ± 0.0005 min⁻¹

Source: patent US7470821B2, “Aldolase-inhibiting aromatic compounds” (Valorisation-Recherche, Limited Partnership, priority 2003, dated 2008)
